Columns and labels:
D(3) dopamine receptor [1] = target: T1, D(3) dopamine receptor (Homo sapiens, UniProt P35462); test: Functional activity in vitro using microphysiometry at Dopamine receptor D3; Agonist; details: filed as agonist
D(2) dopamine receptor [2] = target: T2, D(2) dopamine receptor (Homo sapiens, UniProt P14416); test: Tested for the ability to displace [125I]iodosulpiride from human cloned Dopamine receptor D2, expressed in CHO cells.; format: cell-based
D(3) dopamine receptor [3] = target: T1, D(3) dopamine receptor
Description: Tested for the ability to displace [125I]iodosulpiride from human cloned Dopamine receptor D3, expressed in CHO cells

D(3) dopamine receptor [4] = target: T1, D(3) dopamine receptor; test: Tested for the functional activity in vitro using microphysiometry at Dopamine receptor D3; antagonist; details: filed as antagonist
D(2) dopamine receptor [5] = target: T2, D(2) dopamine receptor; test: Displacement of [125I]iodosulpiride from human Dopamine receptor D2 expressed in CHO cells; format: cell-based

T1 sequence (P35462 whole entry): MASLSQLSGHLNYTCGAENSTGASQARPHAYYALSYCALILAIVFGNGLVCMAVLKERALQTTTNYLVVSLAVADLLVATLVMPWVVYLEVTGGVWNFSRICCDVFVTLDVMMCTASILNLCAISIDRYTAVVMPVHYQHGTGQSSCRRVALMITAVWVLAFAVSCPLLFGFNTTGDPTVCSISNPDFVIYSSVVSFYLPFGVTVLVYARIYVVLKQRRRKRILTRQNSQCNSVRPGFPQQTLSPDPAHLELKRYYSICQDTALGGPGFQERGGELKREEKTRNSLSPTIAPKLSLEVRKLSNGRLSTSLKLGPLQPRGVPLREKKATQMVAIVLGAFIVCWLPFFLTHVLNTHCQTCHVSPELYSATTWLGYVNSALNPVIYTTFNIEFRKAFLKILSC
T2 sequence (P14416 whole entry): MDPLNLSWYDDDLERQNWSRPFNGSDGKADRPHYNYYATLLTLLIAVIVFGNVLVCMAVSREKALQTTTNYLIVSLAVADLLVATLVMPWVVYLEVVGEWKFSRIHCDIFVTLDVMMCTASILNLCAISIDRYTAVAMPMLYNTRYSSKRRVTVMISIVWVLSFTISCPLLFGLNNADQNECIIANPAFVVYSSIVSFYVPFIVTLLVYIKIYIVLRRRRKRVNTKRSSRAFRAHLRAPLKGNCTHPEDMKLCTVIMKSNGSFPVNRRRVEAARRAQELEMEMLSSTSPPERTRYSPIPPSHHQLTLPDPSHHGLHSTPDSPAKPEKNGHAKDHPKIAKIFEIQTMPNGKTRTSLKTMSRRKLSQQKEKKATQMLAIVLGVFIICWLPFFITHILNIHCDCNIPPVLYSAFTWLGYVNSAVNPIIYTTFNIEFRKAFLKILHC

Row | SMILES | Function (D(3) dopamine receptor [1]) | Ki (D(2) dopamine receptor [2]) | Ki (D(3) dopamine receptor [3]) | Function (D(3) dopamine receptor [4]) | Ki (D(2) dopamine receptor [5])
1 | CCCN(CCCCNC(=O)c1ccc(-c2ccccc2)cc1)C1CCc2nc(NC)ncc2C1 (stereo not given) | Agonist | 2510 nM | 15.8 nM |  | 
2 | CCCN(CCCCNC(=O)c1ccc(-c2ccccc2)cc1)C1CCc2nc(C(C)(C)C)ncc2C1 (stereo not given) |  | 1580 nM | 12.6 nM | Antagonist | 
3 | CCCN(CCCCNC(=O)c1ccc(-c2ccccc2)cc1)C1CCc2nc(SC)ncc2C1 (stereo not given) |  | 1260 nM | 15.8 nM | Antagonist | 
4 | CCCN1COC[C@@H]2c3cc(O)ccc3OC[C@H]21 |  |  | 25.1 nM |  | 2510 nM
5 | CCCNC1CCc2nc(N)sc2C1 (stereo not given) |  |  | 10 nM |  | 
6 | CN(CCCCNC(=O)c1ccc(-c2ccccc2)cc1)C1CCc2nc(N)ncc2C1 (stereo not given) | Agonist | 1580 nM | 10 nM |  | 
7 | CCCN(CCCCNC(=O)c1ccc(-c2ccccc2)cc1)C1CCc2nc(C)ncc2C1 (stereo not given) | Agonist | 2510 nM | 7.94 nM |  | 
8 | CCCN(CCCCNC(=O)c1ccc(-c2ccccc2)cc1)C1CCc2ncnc(OC)c2C1 (stereo not given) | Agonist | 1580 nM | 3.16 nM |  | 
9 | CCCN(CCCCNC(=O)c1ccc(-c2ccccc2)cc1)C1CCc2nc(N)sc2C1 (stereo not given) | Agonist | 200 nM | 0.501 nM |  | 
10 | CCCN(CCCCNC(=O)c1ccc(-c2ccccc2)cc1)C1CCc2nc(N)ncc2C1 (stereo not given) | Agonist | 158 nM | 0.794 nM |  | 
11 | CCCN(CCCCNC(=O)c1ccc(-c2ccccc2)cc1)C1CCc2ncncc2C1 (stereo not given) |  | 1260 nM | 126 nM |  | 
12 | CCCN(CCCCNC(=O)c1ccc(-c2ccccc2)cc1)C1CCc2nc(N(C)C)ncc2C1 (stereo not given) |  | 1580 nM | 25.1 nM | Antagonist | 
13 | CCCN(CCCCNC(=O)c1ccc(-c2ccccc2)cc1)C1CCc2n[nH]cc2C1 (stereo not given) | Agonist | 501 nM | 3.16 nM |  | 

— ChEMBL document CHEMBL1131981, “Heterocyclic analogues of 2-aminotetralins with high affinity and selectivity for the dopamine D3 receptor” (Bioorg Med Chem Lett, 1999)
